Assay results taken from patent US20170190671A1, “BIS(ARYL)CATECHOL DERIVATIVES AS HERBICIDES” (E I DU PONT DE NEMOURS AND COMPANY, priority 2014, published 2017).

Legend:
Type in all cases: in vivo
[1] = test system: waterhemp (common waterhemp, Amaranthus rudis); assay: Test C postemergence; settings: Amaranthus tuberculatus, post-emergence, Postemergence, scale 0 to 100, read-out: Plant response rating, Waterhemp; for pest or weed control at 31 g/ha: 31 g ai/ha; for pest or weed control at 62 g/ha: 62 g ai/ha; for pest or weed control at 125 g/ha: 125 g ai/ha; for pest or weed control at 250 g/ha: 250 g ai/ha
Procedure, shortened: (§1)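 Treatment is preemergence to seeds in a loam and sand soil, or postemergence to plants 2 to 18 cm high in a peat moss-based medium. The compound is delivered in a non-phytotoxic solvent mixture including surfactant. Effects are judged by eye 13 to 15 days later on a 0 to 100 scale.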

wild oat (Avena fatua) = assay: Test C postemergence; settings: Avena fatua, post-emergence, Postemergence, scale 0 to 100, read-out: Plant response rating, Oat, Wild; for pest or weed control at 31 g/ha: 31 g ai/ha; for pest or weed control at 62 g/ha: 62 g ai/ha; for pest or weed control at 125 g/ha: 125 g ai/ha; for pest or weed control at 250 g/ha: 250 g ai/ha
Procedure, shortened: as §1

kochia (Kochia scoparia) [2] = assay: Test C postemergence; settings: Bassia scoparia, post-emergence, Postemergence, scale 0 to 100, read-out: Plant response rating, Kochia; for pest or weed control at 31 g/ha: 31 g ai/ha; for pest or weed control at 62 g/ha: 62 g ai/ha; for pest or weed control at 125 g/ha: 125 g ai/ha; for pest or weed control at 250 g/ha: 250 g ai/ha
Procedure, shortened: as §1

[3] = test system: sedge, umbrella (small-flower umbrella sedge, Cyperus difformis); assay: Test B flooded paddy; settings: Cyperus difformis, 336 h; 250 g ai/ha, Flood, 13 to 15 days, scale 0 (no effect) to 100 (complete control); read-out: Plant response rating, Sedge, Umbrella
Procedure, shortened: (§2)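 In-water treatment: compound dosed into 3 cm flood over soil, water level unchanged throughout. Controls run alongside; visual assessment at day 13–15.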

[4] = test system: barnyardgrass (Echinochloa crus-galli); assay: Test B flooded paddy; settings: Echinochloa crus-galli, 336 h; 250 g ai/ha, Flood, 13 to 15 days, scale 0 (no effect) to 100 (complete control); read-out: Plant response rating, Barnyardgrass
Procedure, shortened: as §2

rice (Oryza sativa) = assay: Test B flooded paddy; settings: Oryza sativa, 336 h; 250 g ai/ha, Flood, 13 to 15 days, scale 0 (no effect) to 100 (complete control); read-out: Plant response rating, Rice
Procedure, shortened: as §2

[5] = test system: ducksalad (Heteranthera limosa); assay: Test B flooded paddy; settings: Heteranthera limosa, 336 h; 250 g ai/ha, Flood, 13 to 15 days, scale 0 (no effect) to 100 (complete control); read-out: Plant response rating, Ducksalad
Procedure, shortened: as §2

kochia (Kochia scoparia) [6] = assay: Test A preemergence; settings: Bassia scoparia, pre-emergence, 240 h, 1000 g ai/ha, 0 to 100 scale, read-out: Plant response rating, Kochia
Procedure, shortened: (§3)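 Greenhouse pot test, loam/sand soil. Formulation: non-phytotoxic solvent mix plus surfactant. Pre: directed spray onto soil after sowing. Post: plants at 1–2 leaf, 2–10 cm. Rated visually vs untreated controls at ~10 d, 0 (no effect) to 100 (complete control).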

[7] = test system: pigweed (Amaranthus retroflexus); assay: Test A preemergence; settings: Amaranthus retroflexus, pre-emergence, 240 h, 1000 g ai/ha, 0 to 100 scale, read-out: Plant response rating, Pigweed
Procedure, shortened: as §3

[8] = test system: barnyardgrass (Echinochloa crus-galli); assay: Test A preemergence; settings: Echinochloa crus-galli, pre-emergence, 240 h, 1000 g ai/ha, 0 to 100 scale, read-out: Plant response rating, Barnyardgrass
Procedure, shortened: as §3

[9] = test system: ragweed (common ragweed, Ambrosia elatior); assay: Test A preemergence; settings: Ambrosia artemisiifolia, pre-emergence, 240 h, 1000 g ai/ha, 0 to 100 scale, read-out: Plant response rating, Ragweed
Procedure, shortened: as §3

[10] = test system: Italian ryegrass (Lolium multiflorum); assay: Test A preemergence; settings: Lolium multiflorum, pre-emergence, 240 h, 1000 g ai/ha, 0 to 100 scale, read-out: Plant response rating, Ryegrass, Italian
Procedure, shortened: as §3

[11] = test system: giant foxtail (Setaria faberii); assay: Test A preemergence; settings: Setaria faberi, pre-emergence, 240 h, 1000 g ai/ha, 0 to 100 scale, read-out: Plant response rating, Foxtail, Giant
Procedure, shortened: as §3

[12] = test system: blackgrass (Alopecurus myosuroides); assay: Test A postemergence; settings: Alopecurus myosuroides, post-emergence, 240 h, 1000 g ai/ha, 0 to 100 scale, read-out: Plant response rating, Blackgrass
Procedure, shortened: as §3

corn (Zea mays) = assay: Test A postemergence; settings: Zea mays, post-emergence, 240 h, 1000 g ai/ha, 0 to 100 scale
Procedure, shortened: as §3

kochia (Kochia scoparia) [13] = assay: Test A postemergence; settings: Bassia scoparia, post-emergence, 240 h, 1000 g ai/ha, 0 to 100 scale, read-out: Plant response rating, Kochia
Procedure, shortened: as §3

[14] = test system: pigweed (Amaranthus retroflexus); assay: Test A postemergence; settings: Amaranthus retroflexus, post-emergence, 240 h, 1000 g ai/ha, 0 to 100 scale, read-out: Plant response rating, Pigweed
Procedure, shortened: as §3

[15] = test system: barnyardgrass (Echinochloa crus-galli); assay: Test A postemergence; settings: Echinochloa crus-galli, post-emergence, 240 h, 1000 g ai/ha, 0 to 100 scale, 0 no effect, 100 complete control, read-out: Plant response rating, Barnyardgrass
Procedure, shortened: as §3

[16] = test system: galium (catchweed bedstraw, Galium aparine); assay: Test A postemergence; settings: Galium, post-emergence, 240 h, 1000 g ai/ha, 0 to 100 scale, read-out: Plant response rating, Galium
Procedure, shortened: as §3

[17] = test system: ragweed (common ragweed, Ambrosia elatior); assay: Test A postemergence; settings: Ambrosia artemisiifolia, post-emergence, 240 h, 1000 g ai/ha, 0 to 100 scale, read-out: Plant response rating, Ragweed
Procedure, shortened: as §3

[18] = test system: Italian ryegrass (Lolium multiflorum); assay: Test A postemergence; settings: Lolium multiflorum, post-emergence, 240 h, 1000 g ai/ha, 0 to 100 scale, read-out: Plant response rating, Ryegrass, Italian
Procedure, shortened: as §3

[19] = test system: wheat (Triticum aestivum); assay: Test A postemergence; settings: Triticum aestivum, post-emergence, 240 h, 1000 g ai/ha, 0 to 100 scale, read-out: Plant response rating, Wheat
Procedure, shortened: as §3

[20] = test system: giant foxtail (Setaria faberii); assay: Test A postemergence; settings: Setaria faberi, post-emergence, 240 h, 1000 g ai/ha, 0 to 100 scale, read-out: Plant response rating, Foxtail, Giant
Procedure, shortened: as §3

| SMILES | pest or weed control at 31 g/ha [1] | pest or weed control at 62 g/ha [1] | pest or weed control at 125 g/ha [1] | pest or weed control at 250 g/ha [1] | pest or weed control at 31 g/ha (wild oat (Avena fatua)) | pest or weed control at 62 g/ha (wild oat (Avena fatua)) | pest or weed control at 125 g/ha (wild oat (Avena fatua)) | pest or weed control at 250 g/ha (wild oat (Avena fatua)) | pest or weed control at 31 g/ha (kochia (Kochia scoparia) [2]) | pest or weed control at 62 g/ha (kochia (Kochia scoparia) [2]) | pest or weed control at 125 g/ha (kochia (Kochia scoparia) [2]) | pest or weed control at 250 g/ha (kochia (Kochia scoparia) [2]) | pest or weed control at 250 g/ha [3] | pest or weed control at 250 g/ha [4] | plant injury at 250 g/ha (rice (Oryza sativa)) | pest or weed control at 250 g/ha [5] | pest or weed control at 1000 g/ha (kochia (Kochia scoparia) [6]) | pest or weed control at 1000 g/ha [7] | pest or weed control at 1000 g/ha [8] | pest or weed control at 1000 g/ha [9] | other results |
| --- | --- | --- | --- | --- | --- | --- | --- | --- | --- | --- | --- | --- | --- | --- | --- | --- | --- | --- | --- | --- | --- |
| Clc1cnc(Oc2cccc(Cl)c2Oc2ncc(Br)cn2)nc1 [Compound 17, 5-bromo-2-[2-chloro-6-[(5-chloro-2-pyrimidinyl)oxy]phenoxy]pyrimidine] | 90% | 95% | 95% | 98% | 0% | 0% | 5% | 15% | 90% | 90% | 95% | 95% | 100% | 20% | 35% | 100% | 100% | 100% | 100% | 100% | pest or weed control at 1000 g/ha [10]: 100%; pest or weed control at 1000 g/ha [11]: 100%; pest or weed control at 1000 g/ha [12]: 100%; Corn plant response rating (crop injury, 0 = no effect, 100 = complete kill) at 1000 g/ha (corn (Zea mays)): 100%; pest or weed control at 1000 g/ha (kochia (Kochia scoparia) [13]): 100%; pest or weed control at 1000 g/ha [14]: 100%; pest or weed control at 1000 g/ha [15]: 100%; pest or weed control at 1000 g/ha [16]: 100%; pest or weed control at 1000 g/ha [17]: 90%; pest or weed control at 1000 g/ha [18]: 100%; plant injury at 1000 g/ha [19]: 100%; pest or weed control at 1000 g/ha [20]: 100% |
| Fc1cnc(Oc2c(Cl)cccc2Oc2ncc(Cl)cn2)nc1 [Compound 18, 5-chloro-2-[5-chloro-6-[(5-fluoro-2-pyrimidinyl)oxy]phenoxy]pyrimidine] | 80% | 85% | 95% | 98% | 0% | 0% | 5% | 30% | 30% | 50% | 85% | 95% | 100% | 50% | 80% | 100% | 100% | 100% | 100% | 30% | pest or weed control at 1000 g/ha [10]: 70%; pest or weed control at 1000 g/ha [11]: 100%; pest or weed control at 1000 g/ha [12]: 100%; Corn plant response rating (crop injury, 0 = no effect, 100 = complete kill) at 1000 g/ha (corn (Zea mays)): 50%; pest or weed control at 1000 g/ha (kochia (Kochia scoparia) [13]): 100%; pest or weed control at 1000 g/ha [14]: 100%; pest or weed control at 1000 g/ha [15]: 80%; pest or weed control at 1000 g/ha [16]: 100%; pest or weed control at 1000 g/ha [17]: 20%; pest or weed control at 1000 g/ha [18]: 100%; plant injury at 1000 g/ha [19]: 50%; pest or weed control at 1000 g/ha [20]: 100% |
| Fc1cccc(Oc2ncc(Cl)cn2)c1Oc1ccc(Cl)nc1 [Compound 20] | 85% | 90% | 90% | 95% | 5% | 10% | 10% | 10% | 80% | 90% | 90% | 98% | 90% | 20% | 15% | 95% | 90% | 100% | 100% | 40% | pest or weed control at 1000 g/ha [10]: 70%; pest or weed control at 1000 g/ha [11]: 100%; pest or weed control at 1000 g/ha [12]: 60%; Corn plant response rating (crop injury, 0 = no effect, 100 = complete kill) at 1000 g/ha (corn (Zea mays)): 50%; pest or weed control at 1000 g/ha (kochia (Kochia scoparia) [13]): 90%; pest or weed control at 1000 g/ha [14]: 100%; pest or weed control at 1000 g/ha [15]: 90%; pest or weed control at 1000 g/ha [16]: 90%; pest or weed control at 1000 g/ha [17]: 60%; pest or weed control at 1000 g/ha [18]: 40%; plant injury at 1000 g/ha [19]: 50%; pest or weed control at 1000 g/ha [20]: 90% |
